According to patent publication US20250127168A1, “METHOD FOR PATHOGENS, MICROORGANISMS, AND PARASITES INACTIVATION” (New York Blood Center, Inc., priority 2018, published 2025):

Assays:
[1] = Storage stability of formulated compounds; assay type: physicochemical
From the text: The solutions of the free bases of the compound of Structure I are alkaline, and can absorb atmospheric carbon dioxide, which can compromise the stability of the solutions and accelerate their hydrolysis or other degradation. The free bases of the compounds of Structure I may be stabilized by addition of small amounts of basic compounds, for example of sodium hydroxide.
The compounds of Structure I can be converted to solid solutions by quick solidification by cooling of their solution in compounds which are solid at room temperature. For example, if compound VI is added, in amount of up to 3% to melted polyethylene glycol, and the resulted solution is cooled quickly, preferably in thin film, a solid solution of compound VI is formed. […] The stability of the solid solutions can be further enhanced by addition of traces of strong bases, as for example, of sodium hydroxide. The preferred solids for the preparing of solid solution of compounds of Structure I have melting points above 40° C. and below 120° C., are well soluble in aqueous media, are neutral in chemical character, and have no adverse effect on the sample to be treated by the process, or on its intended use.

Cytochrome C = Cytochrome C (Equus caballus, UniProt P00004); assay: Reactivity with Cytochrome C (electrospray MS); assay type: biochemical; conditions: 8 μM protein; 0.1, 1, 10 mM compound; pH 7.0, 40° C.; 1, 4 and 30 h
Sequence of Cytochrome C (P00004 whole entry): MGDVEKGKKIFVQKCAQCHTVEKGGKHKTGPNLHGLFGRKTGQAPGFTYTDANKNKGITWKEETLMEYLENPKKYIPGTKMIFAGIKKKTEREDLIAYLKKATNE
From the text: Using alkylating molecules to inactivate pathogens in blood product has potentially harmful side effect—their reaction with proteins may create neoantigens, i.e., they may become haptens. To assess the hapten potential of the compounds of Structure I, their ability to modify Cytochrome C was studied. Cytochrome C (MW of 12384 Da) was selected as a model protein because it contains a number of amino acids with nucleophilic side chains: 19 Lys, 2 Cys, 3 Asp, 9 Glu, 3 His, and 4 Tyr, which are potential targets for alkylation by the compounds of Structure I. Cytochrome C, 0.1 mg/mL (8 μM) solution in phosphate buffered saline was incubated with 0 (control), 0.1, 1, and 10 mM of compounds VI or X at pH 7.0 for 30 h at 40° C. Aliquots of the incubation mixtures were analyzed at 1, 4 and 30 h by electrospray mass spectrometry in the positive ionization mode with direct infusion into a LCQ Advantage mass spectrometer (Thermo-Finnigan, San Jose, CA) for the formation of covalent adducts of the protein with the test compounds.

B. cereus [2] = assay: Bacterial inactivation in Ringer's solution, colony agar plate count; assay type: cell-based; conditions: 100 μM, RT, 1 h treatment
Experimental: (§1) A panel of G+F and G-bacteria were inactivated in their respective growth medium using compound VI, compound X, and compound XIV. All cells were grown in corresponding media to middle log phase, collected by centrifugation, re-suspended in Ringer's solution (RS), and treated at RT with 100 μM of compound VI, compound X, and compound XIV, which were added to the suspension as 100× concentrate in RS. Controls received RS only. At the end of the incubation, unreacted compound VI, compound X, and compound XIV were neutralized with 10 mM sodium thiophosphate during incubation at RT for 30 min. The viable cells were enumerated using serial dilutions by standard colony agar plate count. Table 1 summarizes the typical results of 1 h treatment of E. coli, P. fluorescens, Y. enterocolitica, B. cereus, S. aureus, and S. epidermidis with compound VI, compound X, and compound XIV.

E. coli = assay: as above; assay type: cell-based; conditions: 100 μM, RT, 1 h treatment
Experimental: as §1

P. fluorescens [3] = assay: as above; assay type: cell-based; conditions: 100 μM, RT, 1 h treatment
Experimental: as §1

S. aureus = assay: as above; assay type: cell-based; conditions: 100 μM, RT, 1 h treatment
Experimental: as §1

S. epidermidis [4] = assay: as above; assay type: cell-based; conditions: 100 μM, RT, 1 h treatment
Experimental: as §1

Y. enterocolitica [5] = assay: as above; assay type: cell-based; conditions: 100 μM, RT, 1 h treatment
Experimental: as §1

B. cereus [6] = assay: Bacterial inactivation in WB, LB and RBCC, growth/no growth; assay type: cell-based; set-up: key: “+” Growth; “−” No growth; conditions: 6 h at RT
Experimental: (§2) Two G− species, Y. enterocolitica and P. fluorescens, both psychrophiles, and two G+ bacteria, S. epidermids and B. cereus, all known blood contaminants, were used in this study. All blood samples were spiked with approximately 0.1% bacterial stock suspension prepared in RS and left for equilibration at RT for 30 min. Freshly grown overnight bacterial cultures were used for each spiking. Compound VI and compound X were added to spiked blood to final concentrations of 100, 250, and 500 μM. Control samples (Ctr) received solvent only. Incubation was carried out at RT for 6 h followed by the addition of an inactivator, 100x Na thiosulfate, and additional incubation at RT for 2 h. After the incubation and quenching, aliquots were taken for serial dilutions and plate drop-counting and the bacterial growth-promoting solution (containing tryptone, peptone, yeast extract and casamino acids) was added to the remaining volumes. The growth/no growth results were confirmed by streaking agar plates.

P. fluorescens [7] = assay: as above; assay type: cell-based; set-up: key: “+” Growth; “−” No growth; conditions: 6 h at RT
Experimental: as §2

S. epidermidis [8] = assay: as above; assay type: cell-based; set-up: key: “+” Growth; “−” No growth; conditions: 6 h at RT
Experimental: as §2

Y. enterocolitica [9] = assay: as above; assay type: cell-based; set-up: key: “+” Growth; “−” No growth; conditions: 6 h at RT
Experimental: as §2

Question: With `CN(CCCCN(C)CCCN1CC1)CCCN1CC1` [Compound VI, N^1,N^4-bis(3-(aziridin-1-yl)propyl)-N^1,N^4-dimethylbutane-1,4-diamine] as the compound, how does the storage stability [1] read?
Answer: significantly higher storage stability

Question: And the “covalent adducts with cytochrome C” value (Cytochrome C)?
Answer: absence of covalent adducts

Question: And the Titer (B. cereus [2])?
Answer: 2.45 Log10CFU/mL

Question: What about the Titer (E. coli) of the same compound?
Answer: 4.60 Log10CFU/mL

Question: And the Titer (P. fluorescens [3])?
Answer: 2.78 Log10CFU/mL

Question: And the Titer (S. aureus)?
Answer: 7.08 Log10CFU/mL

Question: What about the Titer (S. epidermidis [4]) of the same compound?
Answer: 8.11 Log10CFU/mL

Question: And the Titer (Y. enterocolitica [5])?
Answer: 6.72 Log10CFU/mL

Question: And the “Growth / No growth” value (B. cereus [6]; LB, 100 μM)?
Answer: −

Question: What about the “Growth / No growth” value (B. cereus [6]; LB, 250 μM) of the same compound?
Answer: −

Question: What about the “Growth / No growth” value (B. cereus [6]; LB, 500 μM) of the same compound?
Answer: −

Question: What about the “Growth / No growth” value (B. cereus [6]; RBCC, 100 μM) of the same compound?
Answer: +

Question: And the “Growth / No growth” value (B. cereus [6]; RBCC, 250 μM)?
Answer: −

Question: What about the “Growth / No growth” value (B. cereus [6]; RBCC, 500 μM) of the same compound?
Answer: −

Question: What about the “Growth / No growth” value (B. cereus [6]; WB, 100 μM) of the same compound?
Answer: +

Question: What about the “Growth / No growth” value (B. cereus [6]; WB, 250 μM) of the same compound?
Answer: −

Question: What about the “Growth / No growth” value (B. cereus [6]; WB, 500 μM) of the same compound?
Answer: −

Question: And the “Growth / No growth” value (P. fluorescens [7]; LB, 100 μM)?
Answer: −

Question: And the “Growth / No growth” value (P. fluorescens [7]; LB, 250 μM)?
Answer: −

Question: What about the “Growth / No growth” value (P. fluorescens [7]; LB, 500 μM) of the same compound?
Answer: −

Question: What about the “Growth / No growth” value (P. fluorescens [7]; RBCC, 100 μM) of the same compound?
Answer: −

Question: What about the “Growth / No growth” value (P. fluorescens [7]; RBCC, 250 μM) of the same compound?
Answer: −

Question: What about the “Growth / No growth” value (P. fluorescens [7]; RBCC, 500 μM) of the same compound?
Answer: −

Question: What about the “Growth / No growth” value (P. fluorescens [7]; WB, 100 μM) of the same compound?
Answer: −

Question: What about the “Growth / No growth” value (P. fluorescens [7]; WB, 250 μM) of the same compound?
Answer: −

Question: And the “Growth / No growth” value (P. fluorescens [7]; WB, 500 μM)?
Answer: −

Question: What about the “Growth / No growth” value (S. epidermidis [8]; LB, 100 μM) of the same compound?
Answer: −

Question: What about the “Growth / No growth” value (S. epidermidis [8]; LB, 250 μM) of the same compound?
Answer: −

Question: What about the “Growth / No growth” value (S. epidermidis [8]; LB, 500 μM) of the same compound?
Answer: −

Question: What about the “Growth / No growth” value (S. epidermidis [8]; RBCC, 100 μM) of the same compound?
Answer: −

Question: And the “Growth / No growth” value (S. epidermidis [8]; RBCC, 250 μM)?
Answer: −

Question: And the “Growth / No growth” value (S. epidermidis [8]; RBCC, 500 μM)?
Answer: −

Question: And the “Growth / No growth” value (S. epidermidis [8]; WB, 100 μM)?
Answer: −

Question: And the “Growth / No growth” value (S. epidermidis [8]; WB, 250 μM)?
Answer: −

Question: And the “Growth / No growth” value (S. epidermidis [8]; WB, 500 μM)?
Answer: −

Question: And the “Growth / No growth” value (Y. enterocolitica [9]; LB, 100 μM)?
Answer: −

Question: And the “Growth / No growth” value (Y. enterocolitica [9]; LB, 250 μM)?
Answer: −

Question: And the “Growth / No growth” value (Y. enterocolitica [9]; LB, 500 μM)?
Answer: −

Question: And the “Growth / No growth” value (Y. enterocolitica [9]; RBCC, 100 μM)?
Answer: −

Question: And the “Growth / No growth” value (Y. enterocolitica [9]; RBCC, 250 μM)?
Answer: −

Question: And the “Growth / No growth” value (Y. enterocolitica [9]; RBCC, 500 μM)?
Answer: −

Question: What about the “Growth / No growth” value (Y. enterocolitica [9]; WB, 100 μM) of the same compound?
Answer: −

Question: What about the “Growth / No growth” value (Y. enterocolitica [9]; WB, 250 μM) of the same compound?
Answer: −

Question: What about the “Growth / No growth” value (Y. enterocolitica [9]; WB, 500 μM) of the same compound?
Answer: −

Question: Which “long term storage stability” value ([1]; glycerol solution, addition of 0.1% of sodium hydroxide) does the source give for `CN(CCCCN(C)CCCN1CC1)CCCN(C)CCCN1CC1` [Compound X] here?
Answer: significantly stabilized

Question: And the “covalent adducts with cytochrome C” value (Cytochrome C)?
Answer: absence of covalent adducts

Question: And the Titer (B. cereus [2])?
Answer: ≤1.00 Log10CFU/mL

Question: What about the Titer (E. coli) of the same compound?
Answer: 3.98 Log10CFU/mL

Question: What about the Titer (P. fluorescens [3]) of the same compound?
Answer: ≤1.00 Log10CFU/mL

Question: What about the Titer (S. aureus) of the same compound?
Answer: 6.70 Log10CFU/mL

Question: And the Titer (S. epidermidis [4])?
Answer: 7.32 Log10CFU/mL

Question: What about the Titer (Y. enterocolitica [5]) of the same compound?
Answer: 4.85 Log10CFU/mL

Question: And the “Growth / No growth” value (B. cereus [6]; LB, 100 μM)?
Answer: −

Question: And the “Growth / No growth” value (B. cereus [6]; LB, 250 μM)?
Answer: −

Question: And the “Growth / No growth” value (B. cereus [6]; RBCC, 250 μM)?
Answer: −

Question: And the “Growth / No growth” value (B. cereus [6]; WB, 100 μM)?
Answer: −

Question: And the “Growth / No growth” value (B. cereus [6]; WB, 250 μM)?
Answer: −

Question: And the “Growth / No growth” value (B. cereus [6]; WB, 500 μM)?
Answer: −

Question: And the “Growth / No growth” value (P. fluorescens [7]; LB, 100 μM)?
Answer: −

Question: And the “Growth / No growth” value (P. fluorescens [7]; LB, 250 μM)?
Answer: −

Question: What about the “Growth / No growth” value (P. fluorescens [7]; RBCC, 100 μM) of the same compound?
Answer: −

Question: And the “Growth / No growth” value (P. fluorescens [7]; RBCC, 250 μM)?
Answer: −

Question: What about the “Growth / No growth” value (P. fluorescens [7]; WB, 100 μM) of the same compound?
Answer: −

Question: What about the “Growth / No growth” value (P. fluorescens [7]; WB, 250 μM) of the same compound?
Answer: −

Question: And the “Growth / No growth” value (S. epidermidis [8]; LB, 100 μM)?
Answer: −

Question: What about the “Growth / No growth” value (S. epidermidis [8]; LB, 250 μM) of the same compound?
Answer: −

Question: What about the “Growth / No growth” value (S. epidermidis [8]; RBCC, 100 μM) of the same compound?
Answer: −

Question: And the “Growth / No growth” value (S. epidermidis [8]; RBCC, 250 μM)?
Answer: −

Question: And the “Growth / No growth” value (S. epidermidis [8]; WB, 100 μM)?
Answer: −

Question: And the “Growth / No growth” value (S. epidermidis [8]; WB, 250 μM)?
Answer: −

Question: What about the “Growth / No growth” value (Y. enterocolitica [9]; LB, 100 μM) of the same compound?
Answer: −

Question: And the “Growth / No growth” value (Y. enterocolitica [9]; LB, 250 μM)?
Answer: −

Question: And the “Growth / No growth” value (Y. enterocolitica [9]; RBCC, 100 μM)?
Answer: −

Question: What about the “Growth / No growth” value (Y. enterocolitica [9]; RBCC, 250 μM) of the same compound?
Answer: −

Question: What about the “Growth / No growth” value (Y. enterocolitica [9]; WB, 100 μM) of the same compound?
Answer: −

Question: What about the “Growth / No growth” value (Y. enterocolitica [9]; WB, 250 μM) of the same compound?
Answer: −
